Experimental findings from patent US20250144249A1, “METHODS USING SURFACE-EXPRESSIBLE ACTIVATABLE EPITOPES TO LOCALIZE AND/OR TREAT DISEASED CELLS” (EARLI Inc., priority 2022, published 2025) are described below.

Common to all, as to format: cell-based, human
The test system of assay [1] is H1299 cells. As to the kind of experiment: FACS detection of engineered DLL3 on the surface of transfected H1299 cells (Example 4). As to conditions: for expression level of DLL3 on the cell surface / percent positive (DLL3-positive cells): H1299 cells transfected with construct; for expression level of DLL3 on the cell surface: fluorescently labeled anti-DLL3 antibody, FACS, compared to wild-type DLL3 (NP116, NP127). From the text: Each of the six engineered DLL3 constructs ([…]) and two different wild-type DLL3 constructs (NP116 and NP127) was separately introduced to human non-small cell lung carcinoma, H1299 cells (also known as NCI-H1299 or CRL-5803) by transfection to analyze the expression of engineered DLL3. H1299 cells were then stained with fluorescently labeled anti-DLL3 antibodies and analyzed by fluorescence-activated cell sorting (FACS) to detect DLL3 expression. Panels A2-G2 in FIG. 8B, and NP116, NP127, NP244-NP249, and NP268 in FIG. 8C show the amount of DLL3 expressed on the cell surface corresponding to panels A1-G1 in FIG. 8A. […] Specifically, NP249 and NP247 increased percent positive to ˜80% and ˜94%, respectively (FIG. 8C).

Assay [2] concerns H1299 cells. As to the kind of experiment: in vitro cell killing assay with anti-DLL3-PBD (Example 4). The following applies: H1299 cells transfected with construct, treated with anti-DLL3-PBD; compared to NP116 or NP127; FIG. 8D. Here is the method: Next, in vitro cell killing assay was performed to determine the ability of anti-DLL3 antibodies conjugated with a cytotoxic payload (anti-DLL3-PBD) to induce cytotoxicity. The anti-DLL3-PBD was introduced to H1299 cells transfected with NP247 (G1 in FIG. 8A), NP249 (D1 in FIG. 8A), NP116 (wild-type control), or NP127 (wild-type control).

Assay [3] relates to H1299 cells. As to the kind of experiment: cell killing assay, CellTiter Glo 2.0 (Example 7). As to conditions: treated with anti-DLL3-PBD, 72 hours, compared to NP116, FIG. 13B. The method, then: Next, H1299 cells stably expressing WT or engineered DLL3 were seeded 5,000 cells/well in 96 well plates. 24 hours after seeding, H1299 cells were treated with a titration of either an unconjugated anti-DLL3 antibody or an anti-DLL3 antibody conjugated to a PBD toxin (anti-DLL3-PBD). 72 hours after antibody treatment, cell viability was assessed using the CellTiter Glo 2.0 assay kit and analyzed on a Promega GloMax Navigator.

The subject of assay [4] is H1299 cells. As to the kind of experiment: number of copies of anti-DLL3 antibody bound to DLL3 on the cell surface (quantification bead standard curve). Here is the method: Next, a physical number of copies of anti-DLL3 antibody bound to DLL3 expressed on the cell surface was assessed. H1299 cells were seeded into 96 well plate. 24 hours after seeding, H1299 cells were transfected with nanoplasmid vectors comprising NP116 (wild-type control), NP247 (with a single DLL3 epitope in the CD8 scaffold), or NP298 (with two DLL3 epitopes in the CD8 scaffold) via lipofectamine according to the manufacture's protocols. H1299 cells were then stained with fluorescently labeled anti-DLL3 antibodies for FACS analysis. Cells and commercially available beads for epitope quantification were then stained with an anti-DLL3 secondary antibody conjugated to Alexa Fluor® 647 (AF647). H1299 cells were subsequently analyzed on a BD Biosciences FACSAria IIu (FIGS. 10A-10C). The number of epitopes were calculated by comparing the cell's expression to the quantification bead standard curve (FIGS. 10B-10C).
Each of NP247 and NP298 constructs and wild-type DLL3 construct (NP116) was separately introduced to H1299 cells by transfection to analyze the expression of engineered DLL3. […] H1299 cells stably expressing wild-type or engineered DLL3 and commercially available beads for epitope quantification were then stained with an anti-DLL3 secondary antibody conjugated to Alexa Fluor® 647 (AF647). H1299 cells were subsequently analyzed on a BD Biosciences FACSAria IIu. […]

“Also recorded” adds a separate entry of the source.

As for “NP246: engineered DLL3 construct, DLL3 residues 27-492, CD8a SP/CD28 transmembrane helix; SEQ ID NO: 36”, in the assay with H1299 cells [1], the “expression level of DLL3 on the cell surface” value (“expression level of DLL3” below) is “increased the expression level of DLL3”.
Turning to “NP247: engineered DLL3 construct, DLL3 residues 27-254, CD8a hinge, CD28 transmembrane helix; SEQ ID NO: 37”, the “percent positive (DLL3-positive cells)” value in the assay on H1299 cells [1] (FIG. 8C) is reported as around 94%. Besides, the “expression level of DLL3” value with H1299 cells [1] is listed as “increased the expression level of DLL3”. Besides, the mean fluorescence intensity result with H1299 cells [1] (compared to DLL3 wild-type or the DLL3 stable cell line, FIG. 8C) is “significantly higher mean fluorescence intensity”. Further, the “loss of viability of cells expressing the construct” value with H1299 cells [2] is “substantial loss in viability; also recorded: substantial loss of viability”. For the same molecule, in the assay on H1299 cells [3], the “loss of viability / susceptibility to cell death of cells expressing the construct” value is “may be more susceptible to cell death; also recorded: substantial loss of viability”. Further, the “increase in copy number of anti-DLL3 antibodies compared to cells expressing NP116” value in the assay with H1299 cells [4] (Example 5, H1299 cells transfected with nanoplasmid vectors, FIG. 10C) turned out to be 13 fold; in the assay with H1299 cells [4] (Example 7, FIG. 13A), 21 fold.

B1: NP245: engineered DLL3 construct, DLL3 residues 27-492 with PD-L1 signal peptide/transmembrane helix; SEQ ID NO: 35 (protein)
chain: MRIFAVFIFMTYWHLLNAAGVFELQIHSFGPGPGPGAPRSPCSARLPCRLFFRVCLKPGLSEEAAESPCALGAALSARGPVYTEQPGAPAPDLPLPDGLLQVPFRDAWPGTFSFIIETWREELGDQIGGPAWSLLARVAGRRRLAAGGPWARDIQRAGAWELRFSYRARCEPPAVGTACTRLCRPRSAPSRCGPGLRPCAPLEDECEAPLVCRAGCSPEHGFCEQPGECRCLEGWTGPLCTVPVSTSSCLSPRGPSSATTGCLVPGPGPCDGNPCANGGSCSETPRSFECTCPRGFYGLRCEVSGVTCADGPCFNGGLCVGGADPDSAYICHCPPGFQGSNCEKRVDRCSLQPCRNGGLCLDLGHALRCRCRAGFAGPRCEHDLDDCAGRACANGGTCVEGGGAHRCSCALGFGGRDCRERADPCAARPCAHGGRCYAHFSGLVCACAPGYMGARCEFPVHPDGASALPAAPPGLRPGDPQRYLLPLAHPPNERTHLVILGAILLCLGVALTFIFRHMGGGSGGGSAYPYDVPDYAAYPYDVPDYA
B1: in the assay with H1299 cells [1], the “expression level of DLL3” value is reported as “increased the expression level of DLL3”.

B2: NP249: engineered DLL3 construct, DLL3 residues 27-492 with CD73 SP/GPI-anchor motif; SEQ ID NO: 39, 46 (protein)
chain: MCPRAARAPATLLLALGAVLWPAAGAAGVFELQIHSFGPGPGPGAPRSPCSARLPCRLFFRVCLKPGLSEEAAESPCALGAALSARGPVYTEQPGAPAPDLPLPDGLLQVPFRDAWPGTFSFIIETWREELGDQIGGPAWSLLARVAGRRRLAAGGPWARDIQRAGAWELRFSYRARCEPPAVGTACTRLCRPRSAPSRCGPGLRPCAPLEDECEAPLVCRAGCSPEHGFCEQPGECRCLEGWTGPLCTVPVSTSSCLSPRGPSSATTGCLVPGPGPCDGNPCANGGSCSETPRSFECTCPRGFYGLRCEVSGVTCADGPCFNGGLCVGGADPDSAYICHCPPGFQGSNCEKRVDRCSLQPCRNGGLCLDLGHALRCRCRAGFAGPRCEHDLDDCAGRACANGGTCVEGGGAHRCSCALGFGGRDCRERADPCAARPCAHGGRCYAHFSGLVCACAPGYMGARCEFPVHPDGASALPAAPPGLRPGDPQRYLGGSSTGSHCHGSFSLIFLSLWAVIFVLYQ
On to B2, for which, in the assay with H1299 cells [1] (FIG. 8C), the “percent positive (DLL3-positive cells)” value was around 80%. Further, in the assay on H1299 cells [1], the “expression level of DLL3” value is recorded as “increased the expression level of DLL3”. The “loss of viability of cells expressing the construct” value in the assay with H1299 cells [2] is listed as “substantial loss in viability; also recorded: substantial loss of viability”.

B3: NP244: engineered DLL3 construct, DLL3 residues 27-492 with EGFR signal peptide/transmembrane helix; SEQ ID NO: 34 (protein)
chain: MRPSGTAGAALLALLAALCPASRAAGVFELQIHSFGPGPGPGAPRSPCSARLPCRLFFRVCLKPGLSEEAAESPCALGAALSARGPVYTEQPGAPAPDLPLPDGLLQVPFRDAWPGTFSFIIETWREELGDQIGGPAWSLLARVAGRRRLAAGGPWARDIQRAGAWELRFSYRARCEPPAVGTACTRLCRPRSAPSRCGPGLRPCAPLEDECEAPLVCRAGCSPEHGFCEQPGECRCLEGWTGPLCTVPVSTSSCLSPRGPSSATTGCLVPGPGPCDGNPCANGGSCSETPRSFECTCPRGFYGLRCEVSGVTCADGPCFNGGLCVGGADPDSAYICHCPPGFQGSNCEKRVDRCSLQPCRNGGLCLDLGHALRCRCRAGFAGPRCEHDLDDCAGRACANGGTCVEGGGAHRCSCALGFGGRDCRERADPCAARPCAHGGRCYAHFSGLVCACAPGYMGARCEFPVHPDGASALPAAPPGLRPGDPQRYLSIATGMVGALLLLLVVALGIGLFMRRRHIVRKHMGGGSGGGSAYPYDVPDYAAYPYDVPDYA
Take B3: the “expression level of DLL3” value with H1299 cells [1] was “did not increase the expression level of DLL3”.
